Assay results: PubChem BioAssay (NCI)
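Growth conditions: 96-well plates. Treatment: test compound, 48 hours, 5 concentrations. Analysis: linear interpolation between bracketing concentrations; unreached endpoints set to highest concentration. The concentration for full growth arrest is given as TGI.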

Legend:
Assay in all cases: growth of human tumour cells (NCI), 48 h
LOX IMVI melanoma = tested on: LOX IMVI melanoma
OVCAR-8 ovarian = tested on: OVCAR-8 ovarian
NCI-H460 lung = tested on: NCI-H460 lung
UO-31 renal = tested on: UO-31 renal
RPMI-8226 leukemia = tested on: RPMI-8226 leukemia
K-562 leukemia = tested on: K-562 leukemia
A498 renal = tested on: A498 renal
HCT-116 colon = tested on: HCT-116 colon
SF-539 CNS = tested on: SF-539 CNS
TK-10 renal = tested on: TK-10 renal

Row | SMILES | TGI (LOX IMVI melanoma) [µM] | TGI (OVCAR-8 ovarian) [µM] | TGI (NCI-H460 lung) [µM] | TGI (UO-31 renal) [µM] | TGI (RPMI-8226 leukemia) [µM] | TGI (K-562 leukemia) [µM] | TGI (A498 renal) [µM] | TGI (HCT-116 colon) [µM] | TGI (SF-539 CNS) [µM] | TGI (TK-10 renal) [µM]
1 | Cc1cc2c(cc1C)[n+](=O)c(C(=O)c1ccccc1)c(C(F)(F)F)n2[O-] | 7.58 | > 26.8 | 2.98 | 4.66 | 3.6 | 9.14 | 13.6 | 10.6 | > 35.1 | 12.7
2 | CCCc1[nH]c2ccccc2c1-c1c(CCC)[nH]c2ccccc12 | 17.3 | 11.2 | 59.7 | 34.7 | > 100 | > 100 | > 100 | 15.2 | 36.1 | 50.9
3 | CC(C)(CCC(C)(C)N1OC1c1ccccc1)N1OC1c1ccccc1 (stereo not given) | > 100 | > 100 | > 100 | 62.7 | 71.4 | 37.7 | > 100 | > 100 | > 100 | > 100
4 | O=c1[nH]nc(-c2ccccc2)n1O | > 100 | > 100 | > 100 | > 100 | > 100 | > 100 | > 100 | > 100 | > 100 | > 100
5 | COc1cc(CNc2nc3ccccc3nc2C(=O)O)cc(OC)c1OC | > 100 | > 100 | > 100 | > 100 | > 100 | > 100 | > 100 | > 100 | > 100 | > 100
6 | Nc1ncnc2c1ncn2[C@@H]1O[C@H](COC(c2ccccc2)(c2ccccc2)c2ccccc2)[C@@H](OC(=S)Oc2ccccc2)[C@@H]1F | 14.1 | 11.9 | 46.3 | 13.2 | > 100 | > 100 | 35.2 | 13.8 | 20.9 | 32.3
7 | Clc1ccc2oc(CCc3ccccc3)nc2c1 | > 100 | > 100 | > 100 | > 100 | > 100 | > 100 | 60 | > 100 | > 100 | > 100
8 | O=[N+]([O-])c1ccc(C(O)(C#CCN2CCCC2)c2ccccc2)cc1 (stereo not given) | 43.9 | > 100 | > 100 | > 100 | 61.9 | 42.6 | 76.6 | > 100 | > 100 | > 100
